Numbers after ± are expanded uncertainties.
Assay: mn = molality of the nth substance listed, in mol/kg
Conditions: 101 kPa, Liquid; for electrical conductivity: Frequency=0.001 MHz, Alternating current cell with electrodes; for speed of sound: Frequency=2 MHz; for mass density: Pycnometric method

O=[N+]([O-])[O-].O=[N+]([O-])[O-].[Mg+2] [magnesium nitrate] + CO
Conditions	electrical conductivity [S/m]	mass density [kg/m3]	speed of sound [m/s]	viscosity [mPa·s]
273.15 K, m1 = 0.0082	0.1095 ± 0.0001	–	1187.6 ± 6.8	0.8298 ± 0.042
273.15 K, m1 = 0.0545	0.3036 ± 0.0001	–	1194.3 ± 6.8	0.8885 ± 0.045
273.15 K, m1 = 0.0667	0.3337 ± 0.0001	–	1197.6 ± 6.8	0.9109 ± 0.046
273.15 K, m1 = 0.1047	0.4393 ± 0.0001	–	1202.4 ± 6.8	0.9548 ± 0.048
273.15 K, m1 = 0.2776	0.8097 ± 0.0001	–	1220.4 ± 6.9	1.129 ± 0.055
273.15 K, m1 = 0.4024	1.002 ± 0.001	–	1228.8 ± 6.9	1.336 ± 0.064
273.15 K, m1 = 0.4555	1.043 ± 0.001	–	1237 ± 7	1.4 ± 0.067
273.15 K, m1 = 0.6276	1.207 ± 0.001	–	1253.3 ± 7	1.836 ± 0.085
273.15 K, m1 = 0.782	1.31 ± 0.001	–	1270.9 ± 7.1	2.128 ± 0.098
273.15 K, m1 = 0.881	1.334 ± 0.001	–	1274.9 ± 7.1	2.18 ± 0.1
273.15 K, m1 = 0.9116	1.344 ± 0.001	–	1279.9 ± 7.1	2.329 ± 0.11
273.15 K, m1 = 1.004	1.372 ± 0.001	–	1293.4 ± 7.2	2.559 ± 0.12
273.15 K, m1 = 1.259	1.361 ± 0.001	–	1315.8 ± 7.3	3.717 ± 0.17
273.15 K, m1 = 1.492	1.314 ± 0.001	–	1340.4 ± 7.4	4.748 ± 0.21
273.15 K, m1 = 1.71	1.281 ± 0.001	–	1360.5 ± 7.5	6.086 ± 0.25
273.15 K, m1 = 1.875	1.238 ± 0.001	–	1368.6 ± 7.5	7.175 ± 0.29
278.15 K, m1 = 0.0082	0.1165 ± 0.0001	–	1171.2 ± 6.7	0.7627 ± 0.039
278.15 K, m1 = 0.0545	0.321 ± 0.0001	–	1178.6 ± 6.7	0.8108 ± 0.041
278.15 K, m1 = 0.0667	0.3538 ± 0.0001	–	1181.3 ± 6.8	0.836 ± 0.042
278.15 K, m1 = 0.1047	0.4655 ± 0.0001	–	1185.8 ± 6.8	0.8755 ± 0.044
278.15 K, m1 = 0.2776	0.8637 ± 0.0001	–	1203 ± 6.8	1.029 ± 0.051
278.15 K, m1 = 0.4024	1.073 ± 0.001	–	1214.1 ± 6.9	1.213 ± 0.059
278.15 K, m1 = 0.4555	1.117 ± 0.001	–	1222.1 ± 6.9	1.273 ± 0.061
278.15 K, m1 = 0.6276	1.3 ± 0.001	–	1235.6 ± 7	1.732 ± 0.081
278.15 K, m1 = 0.782	1.417 ± 0.001	–	1254.4 ± 7	1.905 ± 0.088
278.15 K, m1 = 0.881	1.447 ± 0.001	–	1257.8 ± 7.1	1.938 ± 0.09
278.15 K, m1 = 0.9116	1.459 ± 0.001	–	1263.2 ± 7.1	2.079 ± 0.096
278.15 K, m1 = 1.004	1.494 ± 0.001	–	1277.2 ± 7.1	2.278 ± 0.1
278.15 K, m1 = 1.259	1.494 ± 0.001	–	1298.8 ± 7.2	3.26 ± 0.15
278.15 K, m1 = 1.492	1.453 ± 0.001	–	1324.8 ± 7.3	4.119 ± 0.18
278.15 K, m1 = 1.71	1.436 ± 0.001	–	1343.7 ± 7.4	5.244 ± 0.23
278.15 K, m1 = 1.875	1.383 ± 0.001	–	1352.5 ± 7.4	6.178 ± 0.26
283.15 K, m1 = 0.0082	0.1221 ± 0.0001	–	1158.5 ± 6.7	0.7006 ± 0.037
283.15 K, m1 = 0.0545	0.3368 ± 0.0001	–	1163.6 ± 6.7	0.7465 ± 0.039
283.15 K, m1 = 0.0667	0.3738 ± 0.0001	–	1164.3 ± 6.7	0.775 ± 0.04
283.15 K, m1 = 0.1047	0.4908 ± 0.0001	–	1168.9 ± 6.7	0.8049 ± 0.041
283.15 K, m1 = 0.2776	0.9168 ± 0.0001	–	1187.4 ± 6.8	0.9437 ± 0.047
283.15 K, m1 = 0.4024	1.143 ± 0.001	–	1198.4 ± 6.8	1.109 ± 0.054
283.15 K, m1 = 0.4555	1.192 ± 0.001	–	1204.7 ± 6.8	1.158 ± 0.056
283.15 K, m1 = 0.6276	1.394 ± 0.001	–	1219.1 ± 6.9	1.562 ± 0.074
283.15 K, m1 = 0.782	1.528 ± 0.001	–	1238.3 ± 7	1.719 ± 0.08
283.15 K, m1 = 0.881	1.561 ± 0.001	–	1241 ± 7	1.743 ± 0.082
283.15 K, m1 = 0.9116	1.573 ± 0.001	–	1247.8 ± 7	1.866 ± 0.087
283.15 K, m1 = 1.004	1.618 ± 0.001	–	1261.1 ± 7.1	2.041 ± 0.094
283.15 K, m1 = 1.259	1.632 ± 0.001	–	1282.7 ± 7.2	2.891 ± 0.13
283.15 K, m1 = 1.492	1.597 ± 0.001	–	1308.1 ± 7.3	3.619 ± 0.16
283.15 K, m1 = 1.71	1.59 ± 0.001	–	1327.3 ± 7.3	4.554 ± 0.2
283.15 K, m1 = 1.875	1.538 ± 0.001	–	1335.4 ± 7.4	5.339 ± 0.23
288.15 K, m1 = 0.0082	0.1281 ± 0.0001	–	1141.9 ± 6.6	0.6479 ± 0.034
288.15 K, m1 = 0.0545	0.3616 ± 0.0001	–	1145.7 ± 6.6	0.69 ± 0.036
288.15 K, m1 = 0.0667	0.393 ± 0.0001	–	1147.2 ± 6.6	0.7149 ± 0.037
288.15 K, m1 = 0.1047	0.5164 ± 0.0001	–	1152.3 ± 6.6	0.743 ± 0.038
288.15 K, m1 = 0.2776	0.9691 ± 0.0001	–	1170.8 ± 6.7	0.8665 ± 0.044
288.15 K, m1 = 0.4024	1.214 ± 0.001	–	1182.6 ± 6.8	1.016 ± 0.05
288.15 K, m1 = 0.4555	1.267 ± 0.001	–	1188.5 ± 6.8	1.06 ± 0.052
288.15 K, m1 = 0.6276	1.489 ± 0.001	–	1203 ± 6.8	1.408 ± 0.067
288.15 K, m1 = 0.782	1.639 ± 0.001	–	1221.6 ± 6.9	1.556 ± 0.073
288.15 K, m1 = 0.881	1.678 ± 0.001	–	1225.4 ± 6.9	1.575 ± 0.074
288.15 K, m1 = 0.9116	1.69 ± 0.001	–	1231.2 ± 7	1.679 ± 0.079
288.15 K, m1 = 1.004	1.744 ± 0.001	–	1245.4 ± 7	1.828 ± 0.085
288.15 K, m1 = 1.259	1.772 ± 0.001	–	1266.8 ± 7.1	2.586 ± 0.12
288.15 K, m1 = 1.492	1.746 ± 0.001	–	1292.2 ± 7.2	3.198 ± 0.14
288.15 K, m1 = 1.71	1.738 ± 0.001	–	1311.9 ± 7.3	3.978 ± 0.18
288.15 K, m1 = 1.875	1.698 ± 0.001	–	1320.1 ± 7.3	4.642 ± 0.2
293.15 K, m1 = 0.0082	0.1341 ± 0.0001	–	1123.3 ± 6.5	0.6014 ± 0.032
293.15 K, m1 = 0.0545	0.3807 ± 0.0001	–	1129 ± 6.5	0.6412 ± 0.034
293.15 K, m1 = 0.0667	0.412 ± 0.0001	–	1130.5 ± 6.6	0.6621 ± 0.035
293.15 K, m1 = 0.1047	0.5415 ± 0.0001	–	1134.7 ± 6.6	0.6872 ± 0.036
293.15 K, m1 = 0.2776	1.021 ± 0.001	–	1154.7 ± 6.6	0.7989 ± 0.041
293.15 K, m1 = 0.4024	1.277 ± 0.001	–	1165.8 ± 6.7	0.9313 ± 0.046
293.15 K, m1 = 0.4555	1.341 ± 0.001	–	1172.6 ± 6.7	0.9778 ± 0.049
293.15 K, m1 = 0.6276	1.584 ± 0.001	–	1187.3 ± 6.8	1.271 ± 0.061
293.15 K, m1 = 0.782	1.752 ± 0.001	–	1205.7 ± 6.9	1.415 ± 0.067
293.15 K, m1 = 0.881	1.797 ± 0.001	–	1212 ± 6.9	1.429 ± 0.068
293.15 K, m1 = 0.9116	1.811 ± 0.001	–	1215.2 ± 6.9	1.517 ± 0.072
293.15 K, m1 = 1.004	1.873 ± 0.001	–	1229.3 ± 6.9	1.65 ± 0.078
293.15 K, m1 = 1.259	1.917 ± 0.001	–	1250.2 ± 7	2.306 ± 0.11
293.15 K, m1 = 1.492	1.9 ± 0.001	–	1275.7 ± 7.1	2.833 ± 0.13
293.15 K, m1 = 1.71	1.902 ± 0.001	–	1295.5 ± 7.2	3.5 ± 0.16
293.15 K, m1 = 1.875	1.866 ± 0.001	–	1304 ± 7.2	4.058 ± 0.18
298.15 K, m1 = 0.0082	0.1401 ± 0.0001	–	1108.5 ± 6.5	0.5595 ± 0.03
298.15 K, m1 = 0.0545	0.3953 ± 0.0001	–	1115.7 ± 6.5	0.5957 ± 0.032
298.15 K, m1 = 0.0667	0.4305 ± 0.0001	–	1113.6 ± 6.5	0.6148 ± 0.033
298.15 K, m1 = 0.1047	0.5657 ± 0.0001	–	1118.5 ± 6.5	0.6361 ± 0.034
298.15 K, m1 = 0.2776	1.073 ± 0.001	–	1138.2 ± 6.6	0.7381 ± 0.038
298.15 K, m1 = 0.4024	1.343 ± 0.001	–	1149 ± 6.6	0.8609 ± 0.043
298.15 K, m1 = 0.4555	1.416 ± 0.001	–	1155.9 ± 6.7	0.8966 ± 0.045
298.15 K, m1 = 0.6276	1.68 ± 0.001	–	1171.1 ± 6.7	1.146 ± 0.056
298.15 K, m1 = 0.782	1.866 ± 0.001	–	1188.8 ± 6.8	1.287 ± 0.062
298.15 K, m1 = 0.881	1.918 ± 0.001	–	1195.8 ± 6.8	1.301 ± 0.063
298.15 K, m1 = 0.9116	1.933 ± 0.001	–	1198.8 ± 6.8	1.369 ± 0.065
298.15 K, m1 = 1.004	2.005 ± 0.001	–	1212.9 ± 6.9	1.491 ± 0.071
298.15 K, m1 = 1.259	2.065 ± 0.001	–	1232.2 ± 7	2.078 ± 0.096
298.15 K, m1 = 1.492	2.06 ± 0.001	–	1259.5 ± 7.1	2.541 ± 0.12
298.15 K, m1 = 1.71	2.073 ± 0.001	–	1279.9 ± 7.2	3.094 ± 0.14
298.15 K, m1 = 1.875	2.039 ± 0.001	–	1288.1 ± 7.2	3.556 ± 0.16
300.6 K, m1 = 0.1047	–	798.24 ± 4.2	–	–
300.7 K, m1 = 0.6276	–	850.07 ± 21	–	–
300.8 K, m1 = 0.881	–	871.54 ± 35	–	–
301.1 K, m1 = 1.492	–	934.05 ± 50	–	–

Source: the NIST ThermoML archive (doi:10.1021/je800463k)
